± gives the standard deviation of the averaged measurements.
Columns and labels:
Assay in all cases: level (log10 ratio to DMSO vehicle control); higher = higher biomarker level / cell amount than vehicle control
[1] = compound: C=CC(=O)OCCC(F)(F)C(F)(F)C(F)(F)C(F)(F)C(F)(F)C(F)(F)C(F)(F)C(F)(F)F [8:2 Fluorotelomer acrylate]; settings: in DMSO
Description: (§1)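 BioMAP Diversity Plus panel of 12 human primary cell co-culture systems (3C, 4H, LPS, SAg, BT, BF4T, BE3C, CASM3C, HDF3CGF, KF3CT, MyoF, Mphg). Compounds were added 1 h before stimulation and left for 24 h (MyoF 48 h; BT 72 h for soluble read-outs or 6 d for IgG). Biomarkers were read by ELISA, cytotoxicity by SRB, PBMC viability and proliferation by Alamar Blue. Each well value was divided by the mean of 8 DMSO control wells on the same plate and log10 transformed; duplicate blinded samples were tested at 4 concentrations.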

[2] = compound: OCCCCC(F)(F)C(F)(F)C(F)(F)C(F)(F)F [4:4 Fluorotelomer alcohol]; settings: in DMSO
Description: as §1

[3] = compound: OCC(F)(F)C(F)(F)C(F)(F)C(F)(F)C(F)(F)C(F)(F)C(F)(F)C(F)(F)C(F)(F)C(F)(F)C(F)(F)F [11:1 Fluorotelomer alcohol]; settings: in DMSO
Description: as §1

[4] = compound: C=CC(=O)OCC(F)(F)C(F)(F)C(F)(F)C(F)(F)COC(=O)C=C [1H,1H,6H,6H-Perfluorohexane-1,6-diol diacrylate]; settings: 6700 nM; in DMSO
Description: as §1

[5] = compound: O=S(=O)(OCC(F)(F)F)C(F)(F)C(F)(F)C(F)(F)C(F)(F)F [2,2,2-Trifluoroethyl perfluorobutanesulfonate]; settings: in DMSO
Description: as §1

[6] = compound: FC(F)(F)COC(OCC(F)(F)F)OCC(F)(F)F [tris(Trifluoroethoxy)methane]; settings: in DMSO
Description: as §1

Perfluorooctanoic acid = compound: O=C(O)C(F)(F)C(F)(F)C(F)(F)C(F)(F)C(F)(F)C(F)(F)C(F)(F)F [Perfluorooctanoic acid]; settings: in DMSO
Description: as §1

Test System	level (log10) ([1]; 6700 nM)	level (log10) ([1]; 20000 nM)	level (log10) ([1]; 60000 nM)	level (log10) ([2]; 6700 nM)	level (log10) ([2]; 20000 nM)	level (log10) ([2]; 60000 nM)	level (log10) ([3]; 1100 nM)	level (log10) ([3]; 3300 nM)	level (log10) ([3]; 10000 nM)	level (log10) [4]	level (log10) ([5]; 6700 nM)	level (log10) ([5]; 20000 nM)	level (log10) ([5]; 60000 nM)	level (log10) ([6]; 6700 nM)	level (log10) ([6]; 20000 nM)	level (log10) ([6]; 60000 nM)	level (log10) (Perfluorooctanoic acid; 6700 nM)	level (log10) (Perfluorooctanoic acid; 20000 nM)	level (log10) (Perfluorooctanoic acid; 60000 nM)
HDF3CGF:CD106/VCAM-1	0.0005 ± 0.022	0.011 ± 0.0071	0.007 ± 0.0085	-0.028 ± 0.083	-0.0125 ± 0.04	-0.0215 ± 0.0021	-0.075 ± 0.011	-0.144 ± 0.013	-0.069 ± 0.075	-0.676 ± 0.061	-0.022 ± 0.0099	-0.05 ± 0.034	-0.114 ± 0.037	0.0315 ± 0.018	-0.0275 ± 0.021	-0.0325 ± 0.059	-0.0055 ± 0.005	-0.011 ± 0.017	-0.024 ± 0.013
HDF3CGF:CXCL8/IL-8	-0.01 ± 0.0085	-0.0105 ± 0.0035	-0.0095 ± 0.026	-0.0065 ± 0.0035	0.01 ± 0.0071	0.01 ± 0.0014	-0.002 ± 0.0057	-0.007	-0.001	-0.021 ± 0.0057	0.003 ± 0.0071	0.001 ± 0.0071	0.0125 ± 0.0064	-0.003 ± 0.0028	-0.0005 ± 0.005	0.002 ± 0.0099	0.0015 ± 0.0021	0.002 ± 0.0014	0.015 ± 0.014
HDF3CGF:CXCL9/MIG	-0.0115 ± 0.015	-0.007 ± 0.011	-0.007 ± 0.0042	-0.0045 ± 0.0092	0.0035 ± 0.0092	0.006 ± 0.02	0.009	-0.0145 ± 0.00071	0.009 ± 0.05	-1.14 ± 0.041	-0.0075 ± 0.016	-0.011 ± 0.014	-0.039 ± 0.0071	0.007 ± 0.0099	0.002 ± 0.0071	-0.017 ± 0.018	0.001 ± 0.0057	-0.0245 ± 0.036	-0.0095 ± 0.028
HDF3CGF:CXCL10/IP-10	0.01 ± 0.021	0.003 ± 0.037	0.01 ± 0.028	0.0065 ± 0.0092	0.0155 ± 0.013	0.0105 ± 0.016	-0.0435 ± 0.015	-0.0725 ± 0.0064	-0.039 ± 0.02	-0.492 ± 0.023	-0.024 ± 0.0014	-0.058	-0.099 ± 0.0042	0.0005 ± 0.0092	-0.002 ± 0.0071	-0.015 ± 0.0057	-0.0035 ± 0.011	-0.017 ± 0.016	-0.03 ± 0.034
HDF3CGF:CXCL11/I-TAC	-0.007 ± 0.0057	-0.0095 ± 0.0021	-0.0105 ± 0.028	0.0075 ± 0.0078	0.0205 ± 0.0092	-0.001 ± 0.014	-0.0245 ± 0.03	-0.0655 ± 0.005	-0.0155 ± 0.04	-0.574 ± 0.078	-0.014 ± 0.016	-0.0495 ± 0.00071	-0.137 ± 0.016	-0.01 ± 0.0014	-0.0125 ± 0.021	-0.0145 ± 0.026	-0.0205 ± 0.011	-0.016 ± 0.027	-0.007 ± 0.024
HDF3CGF:Collagen I	-0.025 ± 0.0028	-0.008 ± 0.0071	0.0325 ± 0.018	-0.0175 ± 0.067	-0.0175 ± 0.071	0.031 ± 0.13	0.438 ± 0.0099	0.471 ± 0.03	0.394 ± 0.062	-0.013 ± 0.048	-0.0325 ± 0.016	-0.0635 ± 0.04	-0.047 ± 0.028	0.0165 ± 0.061	0.0025 ± 0.042	0.0345 ± 0.03	-0.025 ± 0.0028	0.0005 ± 0.016	0.0395 ± 0.054
HDF3CGF:Collagen III	0.032 ± 0.024	0.0315 ± 0.019	0.086 ± 0.014	-0.0165 ± 0.029	-0.0105 ± 0.019	0.011 ± 0.05	0.2 ± 0.0021	0.168 ± 0.057	0.171 ± 0.0042	0.105 ± 0.11	-0.0265 ± 0.018	-0.0345 ± 0.033	-0.0995 ± 0.037	-0.013 ± 0.0071	-0.0205 ± 0.0092	0.0075 ± 0.016	0.012 ± 0.011	0.0255 ± 0.0078	0.0155 ± 0.053
HDF3CGF:EGFR	-0.003 ± 0.041	-0.028 ± 0.031	0.006 ± 0.011	-0.0155 ± 0.0035	-0.0105 ± 0.0035	0.0195 ± 0.05	0.034 ± 0.024	0.044 ± 0.064	0.0275 ± 0.083	-0.0155 ± 0.0078	-0.0215 ± 0.077	-0.022 ± 0.09	0.047 ± 0.03	-0.0265 ± 0.015	-0.016 ± 0.054	-0.016 ± 0.0085	-0.065 ± 0.086	-0.086 ± 0.028	-0.0965 ± 0.044
HDF3CGF:M-CSF	-0.0205 ± 0.011	-0.0375 ± 0.0021	-0.0165 ± 0.013	-0.008	-0.0015 ± 0.0092	-0.014 ± 0.0014	0.0115 ± 0.016	0.0095 ± 0.032	-0.003 ± 0.021	-0.588 ± 0.054	-0.009 ± 0.0057	0.0105 ± 0.022	0.0195 ± 0.005	-0.0005 ± 0.00071	-0.0125 ± 0.005	0.022 ± 0.037	-0.0205 ± 0.04	0.013 ± 0.0028	0.0235 ± 0.016
HDF3CGF:MMP-1	0.0165 ± 0.015	0.026 ± 0.011	0.0235 ± 0.029	-0.008 ± 0.0028	0.006 ± 0.0014	0.004 ± 0.0042	-0.011 ± 0.0057	-0.042 ± 0.0014	-0.0255 ± 0.035	0.0075 ± 0.0021	0.0125 ± 0.0078	0.022 ± 0.0085	0.0405 ± 0.0092	-0.005 ± 0.0099	-0.005 ± 0.0014	0 ± 0.0085	-0.0155 ± 0.0064	-0.048 ± 0.0085	-0.035 ± 0.023
HDF3CGF:PAI-I	-0.0135 ± 0.013	-0.0665 ± 0.0021	-0.071 ± 0.0057	-0.0015 ± 0.012	0.0075 ± 0.03	0.0075 ± 0.054	0.037 ± 0.0014	0.0515 ± 0.012	0.029 ± 0.075	-0.074 ± 0.016	-0.0125 ± 0.0092	-0.02 ± 0.024	-0.021 ± 0.0014	-0.0115 ± 0.0021	-0.025 ± 0.023	0.0175 ± 0.018	0.02 ± 0.0071	0.0425 ± 0.019	0.088 ± 0.065
HDF3CGF:Proliferation 72hr	-0.011 ± 0.0099	-0.026 ± 0.044	-0.154 ± 0.076	-0.003 ± 0.044	0.0205 ± 0.057	0.0355 ± 0.039	-0.015 ± 0.065	0 ± 0.0099	0.021 ± 0.02	-0.567 ± 0.013	-0.046	-0.0425 ± 0.029	-0.1 ± 0.047	-0.038 ± 0.081	0.001 ± 0.038	-0.006 ± 0.038	0.06 ± 0.041	0.15 ± 0.005	0.0875 ± 0.0078
HDF3CGF:SRB	-0.02 ± 0.0071	-0.0305 ± 0.037	0.003 ± 0.0014	0.0015 ± 0.036	-0.0165 ± 0.0064	0.006 ± 0.018	-0.0055 ± 0.011	-0.0055 ± 0.016	0.0315 ± 0.036	-0.291 ± 0.028	0.0205 ± 0.012	0.0125 ± 0.029	0.0325 ± 0.035	0.003 ± 0.073	0.0335 ± 0.0035	0.02 ± 0.038	-0.0075 ± 0.026	0.0325 ± 0.043	-0.0245 ± 0.056

From the supplement of paper PMC10331698
